Here are results for five molecules from patent US5739123A, “Phosphinic acid derivatives with metallopeptidase inhibitory activity” (Zambon Group S.p.A., priority 1994, dated 1998).

One test concerns the target T1, ACE (Oryctolagus cuniculus, UniProt P12822).
T1 construct: purchased SIGMA; host or cells: rabbit lung (purified)
T1 sequence (P12822 34-1310): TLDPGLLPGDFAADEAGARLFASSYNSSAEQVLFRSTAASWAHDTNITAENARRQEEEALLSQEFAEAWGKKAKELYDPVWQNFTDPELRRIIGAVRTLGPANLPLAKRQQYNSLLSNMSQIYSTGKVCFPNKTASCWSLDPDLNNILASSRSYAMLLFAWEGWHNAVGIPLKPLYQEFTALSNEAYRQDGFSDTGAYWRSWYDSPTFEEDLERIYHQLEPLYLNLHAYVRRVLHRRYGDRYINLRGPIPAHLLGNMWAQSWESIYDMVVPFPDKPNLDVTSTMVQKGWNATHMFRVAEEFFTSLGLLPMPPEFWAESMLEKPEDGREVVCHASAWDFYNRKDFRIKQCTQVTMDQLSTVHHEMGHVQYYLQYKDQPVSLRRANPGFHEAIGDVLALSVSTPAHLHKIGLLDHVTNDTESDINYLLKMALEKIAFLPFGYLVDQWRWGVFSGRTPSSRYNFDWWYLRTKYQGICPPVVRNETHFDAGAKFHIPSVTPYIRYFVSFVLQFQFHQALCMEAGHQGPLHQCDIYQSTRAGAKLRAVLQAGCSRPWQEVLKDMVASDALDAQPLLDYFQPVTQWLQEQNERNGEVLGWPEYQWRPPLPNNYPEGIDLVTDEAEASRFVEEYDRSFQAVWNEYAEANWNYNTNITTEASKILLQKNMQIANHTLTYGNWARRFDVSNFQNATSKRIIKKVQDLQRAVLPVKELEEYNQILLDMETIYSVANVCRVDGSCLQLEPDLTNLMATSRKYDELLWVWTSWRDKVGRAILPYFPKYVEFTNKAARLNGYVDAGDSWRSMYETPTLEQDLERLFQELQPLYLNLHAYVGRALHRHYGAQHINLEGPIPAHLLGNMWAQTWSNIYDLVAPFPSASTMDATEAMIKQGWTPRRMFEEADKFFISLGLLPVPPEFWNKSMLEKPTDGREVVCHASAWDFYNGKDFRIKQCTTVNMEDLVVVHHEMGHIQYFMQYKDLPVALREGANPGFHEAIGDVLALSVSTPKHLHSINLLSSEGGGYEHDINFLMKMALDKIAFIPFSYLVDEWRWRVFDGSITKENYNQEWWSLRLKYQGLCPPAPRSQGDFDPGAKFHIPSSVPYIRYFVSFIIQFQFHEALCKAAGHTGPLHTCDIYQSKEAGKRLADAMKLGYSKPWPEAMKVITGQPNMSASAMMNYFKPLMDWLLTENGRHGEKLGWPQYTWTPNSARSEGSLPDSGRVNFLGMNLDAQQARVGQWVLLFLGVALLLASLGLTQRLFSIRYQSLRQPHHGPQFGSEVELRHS
As to the kind of experiment: ACE-inhibitory activity, in vitro (FAPGG substrate). The class given is biochemical. As to conditions: ACE purified from lung rabbit; FAPGG 0.8 mM; 37° C.; 340 nm, 5 minutes; tested as lithium or sodium salts. The protocol:
The ACE-inhibitory activity was evaluated according to the method reported in the literature by B. Holmquist et al., in Analytical Biochemistry 95, 540-548 (1979).
[…] of ACE (250 mU/ml purified by lung rabbit, EC 3.4.15.1 SIGMA) with 50 μl of the compound of formula I were preincubated in thermostated cuvettes at 37° C.
The reaction was started by adding furylacryloylphenylalanylglycylglycine 0.8 mM (FAPGG-SIGMA).
Contemporaneously, by using a Beckman DU-50 spectrophotometer provided with a program for calculating delta A/minutes and regression coefficients of the enzyme kinetics curves, the absorbance at 340 nm was recorded in continuo for 5 minutes.
The percentage of the enzyme inhibition in the preparations treated with the compounds of formula I with respect to the untreated preparations was expressed as IC50 value (nM).
(§1) The compounds of formula I were tested in the form of lithium or sodium salts.

The target of a further test is T2, NEP (Rattus norvegicus, UniProt P07861).
T2 construct: Membranes from kidney cortex were prepared; from tissue; host or cells: kidney cortex membranes of male Sprague-Dawley rats
T2 sequence (P07861 1-750): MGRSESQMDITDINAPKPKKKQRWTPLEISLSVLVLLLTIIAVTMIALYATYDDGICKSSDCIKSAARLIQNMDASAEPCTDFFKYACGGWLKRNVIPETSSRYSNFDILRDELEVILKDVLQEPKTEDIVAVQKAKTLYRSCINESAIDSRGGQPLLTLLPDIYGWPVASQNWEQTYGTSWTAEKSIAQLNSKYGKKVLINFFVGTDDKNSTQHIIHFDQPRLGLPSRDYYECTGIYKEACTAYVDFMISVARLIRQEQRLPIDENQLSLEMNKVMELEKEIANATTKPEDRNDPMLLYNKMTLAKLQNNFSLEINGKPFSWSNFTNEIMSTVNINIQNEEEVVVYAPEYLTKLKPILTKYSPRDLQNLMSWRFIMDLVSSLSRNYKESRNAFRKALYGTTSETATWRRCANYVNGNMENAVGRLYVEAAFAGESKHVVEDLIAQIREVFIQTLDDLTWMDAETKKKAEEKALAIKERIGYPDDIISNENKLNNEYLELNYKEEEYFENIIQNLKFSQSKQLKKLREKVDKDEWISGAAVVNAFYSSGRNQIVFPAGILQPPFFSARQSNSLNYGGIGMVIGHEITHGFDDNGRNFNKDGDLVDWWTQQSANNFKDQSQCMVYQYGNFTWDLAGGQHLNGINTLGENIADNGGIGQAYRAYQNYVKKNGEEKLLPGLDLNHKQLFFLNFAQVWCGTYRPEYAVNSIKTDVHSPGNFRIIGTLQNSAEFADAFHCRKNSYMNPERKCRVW
In words: NEP-inhibitory activity, in vitro (kidney cortex membranes, [3H][Leu5]-enkephaline substrate). The class given is biochemical, male Sprague-Dawley rats. The conditions noted are these: rat kidney cortex membranes 5 μg/ml of proteins; [3H][Leu5]-enkephaline 15 nM; pH 7.4; 20 minutes at 30° C.; tested as lithium or sodium salts. The protocol: The NEP-inhibitory activity was evaluated according to the method reported in the literature by C. Llorens et al., in Eur. J. Pharmacol., 69, (1981), 113-116.
Membranes from kidney cortex were prepared according to the following procedure.
By working at 0°-4° C., kidneys were removed from male Sprague-Dawley rats weighing approximately 300 g.
Cortex was carefully dissected, finely minced and suspended in a homogenization buffer (10 mM sodium phosphate pH 7.4 containing 1 mM MgCl2, 30 mM NaCl, 0.02% NAN3) 1:15 weight/volume.
The tissue was then homogenized for 30 seconds using an Ultra-Turrax homogenizer.
Approximately 10 ml of homogenate were layered over 10 ml of sucrose (41% weight/volume) and centrifuged at 31200 rpm for 30 minutes at 4° C. in a fixed angle rotor.
The membranes were collected from the buffer/sucrose interface, washed twice with 50 mM TRIS/HCl buffer (pH 7.4) and resuspended into the same buffer for storage.
The membranes were stored in small aliquots at -80° C. until use. The NEP-inhibitory activity was evaluated by using the following method.
Aliquots of the membrane suspension prepared as above described (concentration 5 μg/ml of proteins) were preincubated in the presence of an aminopeptidase inhibitor (Bestatin--1 mM) for 10 minutes at 30° C.
[^3 H][Leu^5 ]-enkephaline (15 nM) and buffer TRIS/HCl pH 7.4 (50 mM) were added in order to obtain a final volume of 100 μl. Incubation (20 minutes at 30° C.) was stopped by adding HCl 0.1M (100 μl).
The formation of the metabolite [^3 H]Tyr-Gly-Gly was quantified by chromatography on polystyrene columns (Porapak Q). The percentage of inhibition of the metabolite formation in the membrane preparations treated with the compounds of formula I, in comparison to the untreated membrane preparations, was expressed as IC50 value (nM).
as §1

A further test relates to thermolysin. As to conditions: J. Am. Chem. Soc. 1991, 113, 297-307; cited from earlier work.

The IC50 is the point on the concentration scale where inhibition reaches its midpoint.

Where a name gives a salt, the structure may show the parent alone.

As to `CC(C)CC(CP(=O)(O)CNC(=O)Cc1ccccc1)C(=O)N[C@@H](Cc1ccc(-c2ccccc2)cc1)C(=O)O` (stereo partly drawn) [Compound 7, N-[3-[(phenylacetylaminomethyl)(hydroxy)phosphinyl]-2-isobutyl-propionyl]-(1,1'-biphenyl-4-yl)-L-alanine], the figures for the IC50 at ACE and at NEP were 0.183 µM and 0.0301 µM, respectively.

As to `CC(C)CC(CP(=O)(O)CCCc1ccccc1)C(=O)N[C@@H](Cc1ccc(-c2ccccc2)cc1)C(=O)O` (stereo partly drawn) [Compound 1, N-[3-[(3-phenylpropyl)(hydroxy)phosphinyl]-2-isobutyl-propionyl]-(1,1'-biphenyl-4-yl)-L-alanine dilithium salt], the IC50 at ACE is 0.07 µM; on NEP, 0.368 µM.

As to `CC(C)CC(CP(=O)(O)CNC(=O)OCc1ccccc1)C(=O)NC(Cc1ccccc1)C(=O)O` (stereo not drawn), the “inhibitory activity towards thermolysin (in words)” value in the test on thermolysin is given as “endowed with inhibitory activity towards thermolysin”.

On to `CC(C)CC(CP(=O)(O)CCCCc1ccccc1)C(=O)N[C@@H](Cc1ccc(-c2ccccc2)cc1)C(=O)O` (stereo partly drawn) [Compound 2, N-[3-[(4-phenylbutyl)(hydroxy)phosphinyl]-2-isobutyl-propionyl]-(1,1'-biphenyl-4-yl)-L-alanine disodium salt], for which the values for the IC50 on ACE and on NEP were 0.024 µM and 0.22 µM, respectively.

Turning to `CC(C)CC(CP(=O)(O)CNC(=O)c1ccccc1)C(=O)N[C@@H](Cc1ccc(-c2ccccc2)cc1)C(=O)O` (stereo partly drawn) [Compound 6, N-[3-[(benzoylaminomethyl)(hydroxy)phosphinyl]-2-isobutyl-propionyl]-(1,1'-biphenyl-4-yl)-L-alanine], the figures for the 50% inhibitory concentration (IC50) at ACE and on NEP were 0.0046 µM and 0.0077 µM, respectively.
